According to PubChem BioAssay AID248 (DTP/NCI, 2004):
“And” between values parts separate entries of the source, which are not always exact repeats. Identical values can stand only once. Toxic doses and inconclusive results are not listed.

Test system: L1210 leukemia ip in BDF1 mice, survival T/C
Test: NCI In Vivo Anticancer Drug Screen. Data for tumor model L1210 Leukemia (intraperitoneal) in B6D2F1 (BDF1) mice
Conditions: endpoint: mean survival time, higher = longer survival
In short: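 Transplanted-tumor mice were given test agent; controls received vehicle only. Survival readings from the two groups were divided (treated over control).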

[1] = dose: 100.0 mg/kg/injection, schedule: Q01DX001 (ip), vehicle: saline with Tween-80
[2] = dose: 100.0 mg/kg/injection, schedule: Q01DX009 (ip), vehicle: Klucel (hydroxypropylcellulose) (HPC)
[3] = dose: 100.0 mg/kg/injection, schedule: Q04DX003 (ip), vehicle: Klucel (hydroxypropylcellulose) (HPC)
[4] = dose: 200.0 mg/kg/injection, schedule: Q01DX009 (ip), vehicle: Klucel (hydroxypropylcellulose) (HPC)
[5] = dose: 200.0 mg/kg/injection, schedule: Q04DX003 (ip), vehicle: Klucel (hydroxypropylcellulose) (HPC)
[6] = dose: 400.0 mg/kg/injection, schedule: Q01DX009 (ip), vehicle: Klucel (hydroxypropylcellulose) (HPC)
[7] = dose: 400.0 mg/kg/injection, schedule: Q04DX003 (ip), vehicle: Klucel (hydroxypropylcellulose) (HPC)
[8] = dose: 50.0 mg/kg/injection, schedule: Q04DX003 (ip), vehicle: Klucel (hydroxypropylcellulose) (HPC)
[9] = dose: 50.0 mg/kg/injection, schedule: Q01DX009 (ip), vehicle: saline with Tween-80
[10] = dose: 100.0 mg/kg/injection, schedule: Q01DX009 (ip), vehicle: saline with Tween-80
[11] = dose: 100.0 mg/kg/injection, schedule: Q04DX003 (ip), vehicle: saline with Tween-80
[12] = dose: 200.0 mg/kg/injection, schedule: Q01DX009 (ip), vehicle: saline with Tween-80
[13] = dose: 200.0 mg/kg/injection, schedule: Q04DX003 (ip), vehicle: saline with Tween-80
[14] = dose: 400.0 mg/kg/injection, schedule: Q04DX003 (ip), vehicle: saline with Tween-80
[15] = dose: 100.0 mg/kg/injection, schedule: Q01DX001 (ip), vehicle: saline
[16] = dose: 200.0 mg/kg/injection, schedule: Q01DX001 (ip), vehicle: saline
[17] = dose: 400.0 mg/kg/injection, schedule: Q01DX001 (ip), vehicle: saline
[18] = dose: 200.0 mg/kg/injection, schedule: Q01DX009 (ip), vehicle: other
[19] = dose: 400.0 mg/kg/injection, schedule: Q01DX009 (ip), vehicle: other
[20] = dose: 25.0 mg/kg/injection, schedule: Q01DX009 (ip), vehicle: saline
[21] = dose: 50.0 mg/kg/injection, schedule: Q01DX009 (ip), vehicle: saline
[22] = dose: 100.0 mg/kg/injection, schedule: Q01DX009 (ip), vehicle: saline
[23] = dose: 100.0 mg/kg/injection, schedule: Q04DX003 (ip), vehicle: saline
[24] = dose: 200.0 mg/kg/injection, schedule: Q04DX003 (ip), vehicle: saline

## CC(=O)NC1C(OCc2ccccc2)OC(COC(c2ccccc2)(c2ccccc2)c2ccccc2)C(N=[N+]=[N-])C1OCc1ccccc1 (stereo unspecified)
[1]
  T/C: 86 % of control
dose: 200.0 mg/kg/injection, schedule: Q01DX001 (ip), vehicle: saline with Tween-80
  T/C: 86 % of control
dose: 400.0 mg/kg/injection, schedule: Q01DX001 (ip), vehicle: saline with Tween-80
  T/C: 102 % of control

## O=C(O)c1ccc(Oc2ccc(C(=O)O)cc2)cc1
[2]
  T/C: 103 % of control
[3]
  T/C: 97 % of control
[4]
  T/C: 109 % of control
[5]
  T/C: 100 % of control
[6]
  T/C: 100 % of control
[7]
  T/C: 105 % of control

## Oc1cc[c]([Hg][Cl])cc1
dose: 12.5 mg/kg/injection, schedule: Q04DX003 (ip), vehicle: Klucel (hydroxypropylcellulose) (HPC)
  T/C: 105 % of control
dose: 25.0 mg/kg/injection, schedule: Q04DX003 (ip), vehicle: Klucel (hydroxypropylcellulose) (HPC)
  T/C: 111 % of control
[8]
  T/C: 99 % of control

## CC(C)CSC(C)C
[9]
  T/C: 98 % of control
[10]
  T/C: 96 % of control
[11]
  T/C: 107 % of control
[12]
  T/C: 91 % of control
[13]
  T/C: 105 % of control
[14]
  T/C: 87 % of control

## CC(C(=O)c1ccc(-c2ccccc2)cc1)C(Cl)c1ccccc1 (stereo unspecified)
[10]
  T/C: 106 % of control
[12]
  T/C: 94 % of control
dose: 400.0 mg/kg/injection, schedule: Q01DX009 (ip), vehicle: saline with Tween-80
  T/C: 97 % of control

## O=[N+]([O-])c1cccc(OCCBr)c1
[15]
  T/C: 101 % of control
[16]
  T/C: 107 % of control
[17]
  T/C: 103 % of control

## Cc1c2ccncc2c(C)c2c1oc1ccccc12
[18]
  T/C: 91 % of control
[19]
  T/C: 95 % of control

## Cc1ccc(NC(=O)CCC(=O)O)cc1[N+](=O)[O-]
[2]
  T/C: 97 % of control
[4]
  T/C: 101 % of control
[6]
  T/C: 98 % of control

## CN(C)c1ccccc1C(=O)N/N=C\c1ccc(-c2ccccc2)cc1
dose: 100.0 mg/kg/injection, schedule: Q04DX002 (ip), vehicle: Klucel (hydroxypropylcellulose) (HPC)
  T/C: 87 % of control
dose: 200.0 mg/kg/injection, schedule: Q04DX002 (ip), vehicle: Klucel (hydroxypropylcellulose) (HPC)
  T/C: 100 % of control
dose: 400.0 mg/kg/injection, schedule: Q04DX002 (ip), vehicle: Klucel (hydroxypropylcellulose) (HPC)
  T/C: 117 % of control

## N=C(N)SCc1ccc(C(=O)Oc2ccc([N+](=O)[O-])cc2)cc1
[20]
  T/C: 97 % of control
[21]
  T/C: 100 % of control and 103 % of control
[22]
  T/C: 106 % of control
[23]
  T/C: 101 % of control
[24]
  T/C: 98 % of control

## C[N+]([O-])(CCC#N)CC(=O)O (stereo unspecified)
[15]
  T/C: 97 % of control
[16]
  T/C: 101 % of control

## CCN(CC)CCCC(C)n1nnc2cc(Cl)ccc21 (stereo unspecified)
[15]
  T/C: 97 % of control
[16]
  T/C: 97 % of control

## O=C(O)CSC(SCC(=O)O)c1ccccc1
[8]
  T/C: 108 % of control
[3]
  T/C: 107 % of control
[5]
  T/C: 100 % of control
[7]
  T/C: 110 % of control

## CN1CN(c2ccccc2)C2(CCN(CC3Cc4cc(F)ccc4O3)CC2)C1=O (stereo unspecified)
dose: 100.0 mg/kg/injection, schedule: Q01DX001 (ip), vehicle: Klucel (hydroxypropylcellulose) (HPC)
  T/C: 101 % of control
dose: 200.0 mg/kg/injection, schedule: Q01DX001 (ip), vehicle: Klucel (hydroxypropylcellulose) (HPC)
  T/C: 98 % of control
dose: 400.0 mg/kg/injection, schedule: Q01DX001 (ip), vehicle: Klucel (hydroxypropylcellulose) (HPC)
  T/C: 96 % of control

## Nc1nc([Se])c2cc[nH]c2n1
dose: 12.5 mg/kg/injection, schedule: Q01DX009 (ip), vehicle: water
  T/C: 107 % of control
dose: 25.0 mg/kg/injection, schedule: Q01DX009 (ip), vehicle: water
  T/C: 102 % of control
dose: 25.0 mg/kg/injection, schedule: Q04DX003 (ip), vehicle: water
  T/C: 97 % of control
dose: 50.0 mg/kg/injection, schedule: Q01DX009 (ip), vehicle: water
  T/C: 104 % of control
dose: 50.0 mg/kg/injection, schedule: Q04DX003 (ip), vehicle: water
  T/C: 102 % of control
dose: 100.0 mg/kg/injection, schedule: Q04DX003 (ip), vehicle: water
  T/C: 94 % of control and 95 % of control

## Cc1ccc(NC(=O)OCCSCCOC(=O)Nc2ccc(C)cc2)cc1
dose: 100.0 mg/kg/injection, schedule: Q01DX009 (ip), vehicle: other
  T/C: 89 % of control
[18]
  T/C: 89 % of control
[19]
  T/C: 97 % of control

## CC(C)CCn1ccc(N)nc1=O
dose: 25.0 mg/kg/injection, schedule: Q01DX001 (ip), vehicle: saline with Tween-80
  T/C: 97 % of control
dose: 50.0 mg/kg/injection, schedule: Q01DX001 (ip), vehicle: saline with Tween-80
  T/C: 101 % of control
[1]
  T/C: 90 % of control

## CN(C(=O)c1ccccc1C(=O)N(C)c1ccccc1)c1ccccc1
[15]
  T/C: 109 % of control
[16]
  T/C: 109 % of control
[17]
  T/C: 97 % of control

## CCOC(=O)c1nc2nc(Cl)c(Cl)nc2[nH]1
dose: 12.5 mg/kg/injection, schedule: Q04DX003 (ip), vehicle: saline
  T/C: 102 % of control
[20]
  T/C: 107 % of control
dose: 25.0 mg/kg/injection, schedule: Q04DX003 (ip), vehicle: saline
  T/C: 100 % of control
[21]
  T/C: 105 % of control
dose: 50.0 mg/kg/injection, schedule: Q04DX003 (ip), vehicle: saline
  T/C: 105 % of control
[22]
  T/C: 96 % of control
[23]
  T/C: 99 % of control
[24]
  T/C: 98 % of control
dose: 400.0 mg/kg/injection, schedule: Q04DX003 (ip), vehicle: saline
  T/C: 96 % of control

## O=C(Nc1ccc(C2=NCCN2)cc1)c1ccc(NC(=O)c2ccc(C3=NCCN3)cc2)cc1
dose: 1.88 mg/kg/injection, schedule: Q01DX Z (ip), vehicle: saline
  T/C: 101 % of control
dose: 3.75 mg/kg/injection, schedule: Q01DX Z (ip), vehicle: saline
  T/C: 106 % of control
dose: 7.5 mg/kg/injection, schedule: Q01DX Z (ip), vehicle: saline
  T/C: 117 % of control
dose: 15.0 mg/kg/injection, schedule: Q01DX009 (ip), vehicle: saline
  T/C: 119 % of control
dose: 30.0 mg/kg/injection, schedule: Q01DX009 (ip), vehicle: saline
  T/C: 190 % of control
dose: 30.0 mg/kg/injection, schedule: Q01DX Z (ip), vehicle: carboxymethylcellulose (CMC)
  T/C: 203 % of control
dose: 50.0 mg/kg/injection, schedule: Q01DX007 (oral), vehicle: carboxymethylcellulose (CMC)
  T/C: 103 % of control
dose: 60.0 mg/kg/injection, schedule: Q01DX009 (ip), vehicle: saline
  T/C: 197 % of control and 232 % of control
dose: 62.5 mg/kg/injection, schedule: Q## X010 (oral), vehicle: saline
  T/C: 101 % of control
dose: 100.0 mg/kg/injection, schedule: Q01DX007 (oral), vehicle: carboxymethylcellulose (CMC)
  T/C: 100 % of control
dose: 120.0 mg/kg/injection, schedule: Q01DX009 (ip), vehicle: saline
  T/C: 117 % of control
dose: 125.0 mg/kg/injection, schedule: Q## X010 (oral), vehicle: saline
  T/C: 102 % of control
dose: 200.0 mg/kg/injection, schedule: Q01DX007 (oral), vehicle: carboxymethylcellulose (CMC)
  T/C: 108 % of control
dose: 400.0 mg/kg/injection, schedule: Q01DX007 (oral), vehicle: carboxymethylcellulose (CMC)
  T/C: 94 % of control
dose: 500.0 mg/kg/injection, schedule: Q## X010 (oral), vehicle: saline
  T/C: 101 % of control
dose: 800.0 mg/kg/injection, schedule: Q01DX007 (oral), vehicle: carboxymethylcellulose (CMC)
  T/C: 101 % of control

## CC(=O)Oc1ccc2c(C)cc(=O)oc2c1
[15]
  T/C: 100 % of control
[16]
  T/C: 109 % of control

## Cc1c(NS(=O)(=O)c2ccccc2)c(C)c(NS(=O)(=O)c2ccccc2)c(C)c1NS(=O)(=O)c1ccccc1
[9]
  T/C: 96 % of control
[10]
  T/C: 96 % of control
[12]
  T/C: 88 % of control

## CN1CCOC1=Nc1ccc(Cl)cc1
[11]
  T/C: 94 % of control
[13]
  T/C: 99 % of control
[14]
  T/C: 88 % of control
